In PubChem BioAssay (NCI):
Converted amounts (≈) assume the structure as drawn.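 Protocol summary: plate cells (96-well), add compound at 5 concentrations, incubate 48 h, interpolate endpoints linearly. GI50 is the concentration that inhibits growth by half. The concentration for full growth arrest is given as TGI.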

What was measured:
Experiment in all cases: NCI-60 cell line screen, 48 h
NCI-H23 lung = system: NCI-H23 lung
SK-MEL-28 melanoma = system: SK-MEL-28 melanoma
SW-620 colon = system: SW-620 colon
SK-MEL-5 melanoma = system: SK-MEL-5 melanoma
HT29 colon = system: HT29 colon
HOP-92 NSCLC = system: HOP-92 NSCLC
SNB-19 CNS = system: SNB-19 CNS
NCI-H460 lung = system: NCI-H460 lung
OVCAR-3 ovarian = system: OVCAR-3 ovarian
OVCAR-8 ovarian = system: OVCAR-8 ovarian
RPMI-8226 leukemia = system: RPMI-8226 leukemia
MALME-3M melanoma = system: MALME-3M melanoma
UACC-62 melanoma = system: UACC-62 melanoma

SMILES	TGI (NCI-H23 lung)	TGI (SK-MEL-28 melanoma)	TGI (SW-620 colon) [µM]	TGI (SK-MEL-5 melanoma)	TGI (HT29 colon) [µM]	TGI (HOP-92 NSCLC)	TGI (SNB-19 CNS)	TGI (NCI-H460 lung) [µM]	TGI (OVCAR-3 ovarian)	TGI (OVCAR-8 ovarian) [µM]	TGI (RPMI-8226 leukemia) [µM]	TGI (MALME-3M melanoma)	TGI (UACC-62 melanoma) [µM]	GI50 (HOP-92 NSCLC)	GI50 (NCI-H23 lung) [µg/mL]	GI50 (SK-MEL-28 melanoma) [µg/mL]	GI50 (MALME-3M melanoma) [µg/mL]	GI50 (SK-MEL-5 melanoma) [µg/mL]	GI50 (SNB-19 CNS) [µg/mL]	GI50 (OVCAR-3 ovarian) [µg/mL]
CC1(C)OCC(CO)(CO)CO1	> 100 µM	> 100 µM	> 100	> 100 µM	> 100	> 100 µM	> 100 µM	> 100	> 100 µM	> 100	–	–	–	–	–	–	–	–	–	–
Cc1cc(=O)oc2c1cc1ccc3cccc4ccc2c1c34	> 100 µM	> 100 µM	> 100	> 100 µM	> 100	> 100 µM	> 100 µM	> 100	> 100 µM	> 100	> 100	> 100 µM	> 100	–	–	–	–	–	–	–
O=C=C=P(c1ccccc1)(c1ccccc1)c1ccccc1	> 100 µM	> 100 µM	> 100	46.2 µM	–	85.1 µM	> 100 µM	> 100	–	> 100	> 100	> 100 µM	–	–	–	–	–	–	–	–
ICC1CCCO1 (configuration not stated)	> 100 µM	> 100 µM	> 100	> 100 µM	> 100	> 100 µM	> 100 µM	> 100	–	> 100	> 100	> 100 µM	–	–	–	–	–	–	–	–
O=Cc1cn(CCCCCCCCn2cc(C=O)c3ccccc32)c2ccccc12	> 10 µM	> 10 µM	> 10	> 10 µM	> 10	–	> 10 µM	> 10	> 10 µM	> 10	> 10	> 10 µM	> 10	–	–	–	–	–	–	–
CC(=O)[O-].CC(=O)[O-].O=C(N/N=C/c1cc(Cl)cc(Cl)c1[OH2+])c1ccncc1.[Mn+2]	21.9 µM	25 µM	8.09	11 µM	31.6	9.91 µM	36.1 µM	15.8	0.956 µM	10.1	8.88	18 µM	5.54	4.71 µM	–	–	–	–	–	–
Cc1cc(O)c2c(c1)C(=O)c1c(c(O)cc(O)c1-c1c(O)cc(O)c3c1C(=O)c1cc(C)cc(O)c1C3=O)C2=O	50.8 µM	70.8 µM	124	30.6 µM	45	34.4 µM	12.4 µM	55.3	21.6 µM	47	32.9	65.2 µM	25.4	–	–	–	–	–	–	–
CC(C)c1oc(=O)cc2c1C(O)C1OC(=O)C3(C)C(O)C4OC4C2(C)C13 (configuration not stated)	7.63 µM	12.7 µM	19	1.77 µM	11.1	2.38 µM	4.41 µM	9.73	6.42 µM	10.6	4.1	10 µM	7.44	–	–	–	–	–	–	–
Cc1nc2nc(C)n(CCN3CCOCC3)c(=O)c2c(-c2cccc([N+](=O)[O-])c2)c1C(=O)CCCCCCCCCCN1CCC(c2ccccc2)(c2ccccc2)CC1	3.71 µg/mL	4.34 µg/mL	–	4.3 µg/mL	–	1.25 µg/mL	4.3 µg/mL	–	4.19 µg/mL	–	–	4.22 µg/mL	–	0.0976 µg/mL	1.81 (≈ 2.22 µM)	2.26 (≈ 2.78 µM)	2.24 (≈ 2.75 µM)	2.3 (≈ 2.83 µM)	2.28 (≈ 2.8 µM)	2.21 (≈ 2.72 µM)
CC(=O)OCC1(C)C(O)CCC2(C)C1CCC1CC3CC12CCC3(O)CO (configuration not stated)	> 100 µM	> 100 µM	> 100	> 100 µM	> 100	> 100 µM	> 100 µM	> 100	> 100 µM	> 100	> 100	> 100 µM	> 100	–	–	–	–	–	–	–
CCN(CC)CCNc1ccc2ncn3c4ccc(OC)cc4c(=O)c1c23	18.1 µM	28.4 µM	11.1	20 µM	8.14	23 µM	21.4 µM	5.52	24.2 µM	11.8	–	25.1 µM	33.9	–	–	–	–	–	–	–
c1ccc(C2=NN2c2ccccc2)cc1	> 100 µM	> 100 µM	> 100	> 100 µM	> 100	> 100 µM	> 100 µM	> 100	> 100 µM	> 100	–	> 100 µM	> 100	–	–	–	–	–	–	–
C=C1CC(OC)(C(OC)C(=O)N[C@H]2OCO[C@H]3C2O[C@H](C[C@@H](COC)OC)C(C)(C)C3OC)O[C@H](C)[C@@H]1C (some centres not stated)	6.68 µM	3.45 µM	15	1.3 µM	5.49	4.76 µM	3.22 µM	5.96	2.96 µM	6.89	0.917	–	3.72	–	–	–	–	–	–	–
Cc1[nH]c(C)c(CN(C)C)c1CN(C)C	> 100 µM	> 100 µM	> 100	> 100 µM	> 100	> 100 µM	> 100 µM	> 100	> 100 µM	> 100	> 100	> 100 µM	> 100	–	–	–	–	–	–	–
CN1CCC2(c3ccccc3)CC(=O)/C(=C/c3ccc(Cl)c(Cl)c3)C1C2 (configuration not stated)	8.45 µM	5.59 µM	> 21.6	8.37 µM	4.12	7.33 µM	5.32 µM	5.94	9.59 µM	4.64	5.13	24.4 µM	3	–	–	–	–	–	–	–
O=C(O)CCC(NC(=O)c1ccc(Nc2cnc3cc(C(F)(F)F)ccc3n2)cc1)C(=O)O (configuration not stated)	> 100 µM	> 100 µM	> 100	> 100 µM	> 100	> 100 µM	> 100 µM	> 100	> 100 µM	> 100	> 100	> 100 µM	> 100	–	–	–	–	–	–	–
CCOP(=O)(C/C=C/Cn1ncc(=O)[nH]c1=O)OCC	–	> 100 µM	> 100	> 100 µM	> 100	> 100 µM	> 100 µM	> 100	> 100 µM	> 100	> 100	> 100 µM	–	–	–	–	–	–	–	–
CC1(c2ccccc2)O[C@@H]2C[C@H]3[C@@H]4CCC5=CC(=O)C=C[C@]5(C)[C@@]4(F)[C@@H](O)C[C@]3(C)[C@]2(C(=O)CO)O1 (some centres not stated)	36.3 µM	30.8 µM	47.1	28.2 µM	32.4	38.4 µM	63.7 µM	29.8	28.7 µM	41.7	17.2	27.5 µM	35.6	–	–	–	–	–	–	–
